From ChEMBL document CHEMBL1201862, “PubChem BioAssay data set” (2004)
The source made the active and inactive calls.

What was measured:
Paired box protein Pax-8 = Paired box protein Pax-8 (Homo sapiens, UniProt Q06710); assay: PAX8 transcriptional activity inhibition in RMG-I – RMG-I cells, luciferase, cherry-pick, dose response (AID 687027); format: functional, cell-based;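 note: luciferase reporter driven by Pax8 target thyroperoxidase promoter measured by SteadyGlo luminescence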
[1] = biological target: Cyclin-dependent kinase 5/CDK5 activator 1 (Homo sapiens, UniProt Q00535); assay: blockade of human CDK5 activity – biochemical, cherry-picked samples, set 2, dose response (AID 504545)
H4 [2] = assay: Inhibitors of Prion Protein 5' UTR mRNA Measured in Cell-Based System Using Plate Reader - 2078-01_Inhibitor_Dose_DryPowder_Activity. [Related pubchem assays (depositor defined):AID488894]; format: functional; conditions: Homo sapiens
[3] = biological target: T1, Luciferin 4-monooxygenase (Photinus pyralis, UniProt P08659); assay: inhibition of purified Photinus pyralis luciferase – biochemical, dry powder samples, plate reader, dose response (AID 588451)
H4 [4] = assay: Amyloid Precursor 5' UTR neuroblastoma cell reporter line Measured in Cell-Based System Using Plate Reader - 2078-04_Inhibitor_Dose_DryPowder_Activity. [Related pubchem assays (depositor defined):AID488894]; format: functional; conditions: Homo sapiens
[5] = Luminescence Cell-Based Dose Confirmation HTS to Identify Inhibitors of Platelet Dense Granule Release. [Related pubchem assays: 1663 (Primary HTS), 1678 (Summary of Project)]; format: functional
[6] = general cell-killing toxicity readout – plate reader, dry powder samples, cytotoxicity control for PAX8 inhibitor project, dose response (AID 743021); format: functional, cell-based
[7] = biological target: T1, Luciferin 4-monooxygenase; assay: inhibition of purified Photinus pyralis luciferase – biochemical, luminescence, dose response (AID 1891)
Nonstructural protein 1 = Nonstructural protein 1 (Influenza A virus, UniProt Q194T2); format: functional, Influenza A virus (A/California/07/2009(H1N1))
ELAV-like protein 1 = ELAV-like protein 1 (Homo sapiens, UniProt Q15717); assay: Identify HuR specific inhibitors.; format: functional
[8] = biological target: Protein disulfide-isomerase (Homo sapiens, UniProt P07237); assay: inhibition of PDI-driven insulin aggregation – biochemical, turbidity, absorbance, cherry-picked samples, dose response (AID 602350); format: functional
Protein S100-A4 = Protein S100-A4 (Homo sapiens, UniProt P26447); assay: human S100A4 peptide interaction inhibition curves – biochemical, fluorescence polarization, cherry-picked hits, dose response (AID 687001); format: functional
Caspase-3 = biological target: T2, Caspase-3 (Homo sapiens, UniProt P42574); assay: inhibition of recombinant caspase-3 activity – biochemical, luminescence, set 2, selectivity assay for SENP protease inhibitor project, SAR follow-up (AID 588599); format: functional
T2 sequence (P42574 whole entry): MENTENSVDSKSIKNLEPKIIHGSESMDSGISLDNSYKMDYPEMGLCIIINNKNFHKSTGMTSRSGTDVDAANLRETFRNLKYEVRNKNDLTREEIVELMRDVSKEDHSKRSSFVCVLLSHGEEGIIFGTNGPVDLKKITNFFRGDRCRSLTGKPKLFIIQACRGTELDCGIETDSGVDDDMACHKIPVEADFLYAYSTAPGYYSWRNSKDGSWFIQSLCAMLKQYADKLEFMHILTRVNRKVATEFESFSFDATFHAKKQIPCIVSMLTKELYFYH

[9] = biological target: T3, Sentrin-specific protease 7 (Homo sapiens, UniProt Q9BQF6); assay: inhibition of human SENP7 cleavage activity – biochemical, luminescence, set 2, SAR follow-up (AID 588600); format: functional
T3 sequence (Q9BQF6 whole entry): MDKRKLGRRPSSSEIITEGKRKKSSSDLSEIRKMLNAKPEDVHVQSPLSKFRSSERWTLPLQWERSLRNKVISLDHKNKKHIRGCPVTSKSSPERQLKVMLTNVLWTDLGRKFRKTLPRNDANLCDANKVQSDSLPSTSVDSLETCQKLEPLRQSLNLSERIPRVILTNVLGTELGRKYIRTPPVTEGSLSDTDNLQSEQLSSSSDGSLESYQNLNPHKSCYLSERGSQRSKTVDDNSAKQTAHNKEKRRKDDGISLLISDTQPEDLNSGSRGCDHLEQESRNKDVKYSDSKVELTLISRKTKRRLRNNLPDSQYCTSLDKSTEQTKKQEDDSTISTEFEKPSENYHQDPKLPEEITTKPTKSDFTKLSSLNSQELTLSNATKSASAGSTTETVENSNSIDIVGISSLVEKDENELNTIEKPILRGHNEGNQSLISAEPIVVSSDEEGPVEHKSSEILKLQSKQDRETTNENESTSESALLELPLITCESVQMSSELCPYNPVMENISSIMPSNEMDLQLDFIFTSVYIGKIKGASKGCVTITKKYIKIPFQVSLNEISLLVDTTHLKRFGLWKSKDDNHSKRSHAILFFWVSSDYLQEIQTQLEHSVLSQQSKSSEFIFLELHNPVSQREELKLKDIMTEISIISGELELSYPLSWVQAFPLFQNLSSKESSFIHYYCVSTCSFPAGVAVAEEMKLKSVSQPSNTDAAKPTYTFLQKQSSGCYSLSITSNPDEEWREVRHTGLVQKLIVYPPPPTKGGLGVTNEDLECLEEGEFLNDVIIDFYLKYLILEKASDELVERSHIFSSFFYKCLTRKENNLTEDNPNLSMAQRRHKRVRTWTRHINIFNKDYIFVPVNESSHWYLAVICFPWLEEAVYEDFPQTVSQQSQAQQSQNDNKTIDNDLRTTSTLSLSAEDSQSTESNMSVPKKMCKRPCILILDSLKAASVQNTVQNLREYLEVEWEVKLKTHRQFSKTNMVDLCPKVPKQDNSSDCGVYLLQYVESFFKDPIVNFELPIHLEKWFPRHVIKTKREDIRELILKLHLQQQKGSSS

[10] = biological target: T4, Sentrin-specific protease 8 (Homo sapiens, UniProt Q96LD8); assay: inhibition of sentrin protease 8 – biochemical, luminescence, set 2, SAR follow-up (AID 588601); format: functional
T4 sequence (Q96LD8 whole entry): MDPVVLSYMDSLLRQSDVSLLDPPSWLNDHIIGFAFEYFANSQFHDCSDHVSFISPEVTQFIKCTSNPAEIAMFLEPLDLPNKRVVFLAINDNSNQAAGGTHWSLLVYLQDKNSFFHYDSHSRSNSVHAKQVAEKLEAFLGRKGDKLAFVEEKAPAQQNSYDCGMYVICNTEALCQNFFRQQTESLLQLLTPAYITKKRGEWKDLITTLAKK

[11] = biological target: T5, Sentrin-specific protease 6 (Homo sapiens, UniProt Q9GZR1); assay: inhibition of human SENP6 catalytic domain – biochemical, luminescence, set 2, SAR follow-up (AID 588598); format: functional
T5 sequence (Q9GZR1 whole entry): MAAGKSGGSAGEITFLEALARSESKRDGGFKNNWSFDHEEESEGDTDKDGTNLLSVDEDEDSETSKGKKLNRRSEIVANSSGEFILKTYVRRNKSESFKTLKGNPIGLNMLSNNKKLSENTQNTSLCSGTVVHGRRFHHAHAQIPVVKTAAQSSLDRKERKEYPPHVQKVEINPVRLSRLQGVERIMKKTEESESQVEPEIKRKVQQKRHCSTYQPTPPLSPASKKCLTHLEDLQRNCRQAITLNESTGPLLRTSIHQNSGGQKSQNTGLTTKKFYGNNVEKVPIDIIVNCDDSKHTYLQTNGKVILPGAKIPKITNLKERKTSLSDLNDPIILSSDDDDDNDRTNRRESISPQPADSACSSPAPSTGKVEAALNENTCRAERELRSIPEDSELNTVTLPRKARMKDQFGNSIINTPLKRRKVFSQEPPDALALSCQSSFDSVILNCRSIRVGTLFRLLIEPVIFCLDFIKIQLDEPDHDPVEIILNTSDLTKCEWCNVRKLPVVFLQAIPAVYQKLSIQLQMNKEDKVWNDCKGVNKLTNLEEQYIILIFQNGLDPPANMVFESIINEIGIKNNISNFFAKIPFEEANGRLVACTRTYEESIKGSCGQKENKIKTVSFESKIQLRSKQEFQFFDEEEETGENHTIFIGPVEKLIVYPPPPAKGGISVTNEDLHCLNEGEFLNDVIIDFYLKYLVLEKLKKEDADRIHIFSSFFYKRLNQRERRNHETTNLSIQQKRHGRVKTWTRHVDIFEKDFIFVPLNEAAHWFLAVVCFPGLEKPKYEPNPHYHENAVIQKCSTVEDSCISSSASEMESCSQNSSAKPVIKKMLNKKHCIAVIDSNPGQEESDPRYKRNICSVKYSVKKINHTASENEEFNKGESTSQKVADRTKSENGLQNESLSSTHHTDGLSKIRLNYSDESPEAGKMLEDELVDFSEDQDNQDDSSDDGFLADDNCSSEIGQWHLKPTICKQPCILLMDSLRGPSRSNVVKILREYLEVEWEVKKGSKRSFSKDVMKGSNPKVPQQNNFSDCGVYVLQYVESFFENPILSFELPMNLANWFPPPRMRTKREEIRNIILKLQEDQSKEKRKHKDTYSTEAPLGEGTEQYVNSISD

[12] = biological target: Melanin-concentrating hormone receptor 1 (Homo sapiens, UniProt Q99705); assay: Late-stage fluorescence-based counterscreen for antagonists of the G-protein coupled receptor 7 (GPR7): cell-based dose response assay to identify antagonists of the melanin-concentrating hormone receptor 1 (MCHR1) Set 5.; format: functional
Melanin-concentrating hormone receptor 1, sequence (Q99705 whole entry): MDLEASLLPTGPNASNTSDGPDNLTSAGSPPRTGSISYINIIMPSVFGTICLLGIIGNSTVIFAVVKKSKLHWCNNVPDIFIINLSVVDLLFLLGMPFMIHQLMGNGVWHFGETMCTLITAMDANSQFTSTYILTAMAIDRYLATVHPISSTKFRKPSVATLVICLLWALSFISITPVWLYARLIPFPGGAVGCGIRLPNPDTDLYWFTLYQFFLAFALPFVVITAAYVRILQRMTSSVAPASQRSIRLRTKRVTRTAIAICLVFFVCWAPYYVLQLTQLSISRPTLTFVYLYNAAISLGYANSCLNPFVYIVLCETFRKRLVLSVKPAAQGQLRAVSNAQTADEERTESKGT

T1 sequence (P08659 whole entry): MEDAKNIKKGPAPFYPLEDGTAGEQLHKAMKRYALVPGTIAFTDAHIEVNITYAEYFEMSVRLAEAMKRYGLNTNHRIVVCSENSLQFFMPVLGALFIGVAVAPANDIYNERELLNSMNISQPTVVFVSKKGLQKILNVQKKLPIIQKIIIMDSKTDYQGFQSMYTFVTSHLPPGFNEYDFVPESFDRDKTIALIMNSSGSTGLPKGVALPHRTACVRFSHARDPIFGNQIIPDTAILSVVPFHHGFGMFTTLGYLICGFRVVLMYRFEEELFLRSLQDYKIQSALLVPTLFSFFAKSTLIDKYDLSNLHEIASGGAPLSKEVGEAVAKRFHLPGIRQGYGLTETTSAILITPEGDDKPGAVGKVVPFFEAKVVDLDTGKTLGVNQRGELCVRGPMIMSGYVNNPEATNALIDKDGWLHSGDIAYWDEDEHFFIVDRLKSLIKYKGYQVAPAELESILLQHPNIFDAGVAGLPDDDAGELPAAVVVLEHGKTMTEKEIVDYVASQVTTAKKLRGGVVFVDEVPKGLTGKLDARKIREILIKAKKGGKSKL
Paired box protein Pax-8, sequence (Q06710 whole entry): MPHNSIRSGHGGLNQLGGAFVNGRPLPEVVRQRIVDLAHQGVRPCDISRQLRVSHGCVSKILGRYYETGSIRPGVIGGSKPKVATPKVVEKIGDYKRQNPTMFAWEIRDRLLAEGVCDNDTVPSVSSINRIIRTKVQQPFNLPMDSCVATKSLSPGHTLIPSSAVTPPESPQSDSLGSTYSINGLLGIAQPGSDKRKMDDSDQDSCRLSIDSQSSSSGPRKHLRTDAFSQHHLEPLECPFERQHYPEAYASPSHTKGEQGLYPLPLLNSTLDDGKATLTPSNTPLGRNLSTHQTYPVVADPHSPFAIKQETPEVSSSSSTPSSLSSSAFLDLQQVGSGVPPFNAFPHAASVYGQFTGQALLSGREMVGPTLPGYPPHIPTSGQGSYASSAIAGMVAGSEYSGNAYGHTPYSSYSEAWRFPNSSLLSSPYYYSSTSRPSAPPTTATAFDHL
Protein S100-A4, sequence (P26447 whole entry): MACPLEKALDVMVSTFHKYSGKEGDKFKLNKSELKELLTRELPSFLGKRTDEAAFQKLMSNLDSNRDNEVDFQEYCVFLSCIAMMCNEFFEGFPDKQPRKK
ELAV-like protein 1, sequence (Q15717 whole entry): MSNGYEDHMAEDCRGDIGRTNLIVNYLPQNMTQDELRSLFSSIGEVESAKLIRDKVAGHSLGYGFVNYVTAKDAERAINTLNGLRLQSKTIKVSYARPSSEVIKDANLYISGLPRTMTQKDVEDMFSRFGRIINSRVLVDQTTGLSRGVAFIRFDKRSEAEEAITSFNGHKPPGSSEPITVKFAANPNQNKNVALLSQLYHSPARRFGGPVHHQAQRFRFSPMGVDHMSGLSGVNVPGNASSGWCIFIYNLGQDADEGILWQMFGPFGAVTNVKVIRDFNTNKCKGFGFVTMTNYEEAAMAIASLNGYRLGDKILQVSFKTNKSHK
Cyclin-dependent kinase 5/CDK5 activator 1, sequence (Q00535 whole entry): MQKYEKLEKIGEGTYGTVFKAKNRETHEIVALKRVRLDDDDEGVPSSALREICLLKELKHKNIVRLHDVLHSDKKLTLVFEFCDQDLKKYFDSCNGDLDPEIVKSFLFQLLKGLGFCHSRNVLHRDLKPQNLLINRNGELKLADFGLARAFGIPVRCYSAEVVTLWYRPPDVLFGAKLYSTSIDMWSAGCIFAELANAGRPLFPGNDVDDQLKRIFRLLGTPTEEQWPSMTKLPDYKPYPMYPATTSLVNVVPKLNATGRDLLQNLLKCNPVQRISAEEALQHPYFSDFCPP
Cyclin-dependent kinase 5/CDK5 activator 1, sequence (Q15078 whole entry, further chain): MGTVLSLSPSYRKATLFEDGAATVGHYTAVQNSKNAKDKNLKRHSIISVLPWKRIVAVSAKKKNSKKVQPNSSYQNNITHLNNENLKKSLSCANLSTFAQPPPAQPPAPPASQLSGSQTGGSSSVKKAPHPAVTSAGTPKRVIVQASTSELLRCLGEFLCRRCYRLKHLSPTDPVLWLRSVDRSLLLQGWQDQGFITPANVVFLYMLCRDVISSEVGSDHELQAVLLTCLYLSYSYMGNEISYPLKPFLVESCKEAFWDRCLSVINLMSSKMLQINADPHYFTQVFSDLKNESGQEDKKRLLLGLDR
Nonstructural protein 1, sequence (Q194T2 whole entry): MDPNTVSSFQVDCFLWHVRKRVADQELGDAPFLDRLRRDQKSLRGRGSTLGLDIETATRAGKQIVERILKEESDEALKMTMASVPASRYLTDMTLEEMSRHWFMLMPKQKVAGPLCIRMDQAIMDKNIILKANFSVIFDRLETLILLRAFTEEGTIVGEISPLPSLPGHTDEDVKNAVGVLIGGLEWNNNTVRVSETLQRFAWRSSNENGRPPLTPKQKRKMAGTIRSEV
Protein disulfide-isomerase, sequence (P07237 whole entry): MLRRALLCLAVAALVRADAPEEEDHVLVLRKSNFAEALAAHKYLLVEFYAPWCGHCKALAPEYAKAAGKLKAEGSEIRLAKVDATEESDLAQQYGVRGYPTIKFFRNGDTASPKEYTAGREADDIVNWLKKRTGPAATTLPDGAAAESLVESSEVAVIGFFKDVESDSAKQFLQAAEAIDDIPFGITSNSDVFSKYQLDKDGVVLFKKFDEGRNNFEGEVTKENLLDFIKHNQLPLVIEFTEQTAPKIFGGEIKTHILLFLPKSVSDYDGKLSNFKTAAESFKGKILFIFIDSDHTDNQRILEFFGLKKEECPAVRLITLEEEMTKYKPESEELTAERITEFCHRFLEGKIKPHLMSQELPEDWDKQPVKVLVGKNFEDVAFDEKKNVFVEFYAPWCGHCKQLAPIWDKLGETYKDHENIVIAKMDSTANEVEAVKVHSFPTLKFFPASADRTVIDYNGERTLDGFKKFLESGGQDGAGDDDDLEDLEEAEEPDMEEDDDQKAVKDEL

## Cc1ccc(C(=O)O/N=C(\N)c2ccccn2)cc1
Paired box protein Pax-8
  AC50: 15.5 µM (active)
[1]
  AC50: 39 µM (active)
H4 [2]
  AC50: 0.731 µM (active)
[3]
  AC50: 0.06 µM (active)
H4 [4]
  AC50: 0.244 µM (active)
[5]
  EC50: 1.6 µM (active)
[6]
  AC50: 29.9 µM (active)
[7]
  EC50: 0.994 µM (active)

## COc1cccc2c1C(=O)c1c(O)c3c(c(O)c1C2=O)CC(O)(C(C)=NO)CC3OC1CC(N)C(O)C(C)O1 (configuration not stated)
Nonstructural protein 1
  IC50: 32 µM (active)
ELAV-like protein 1
  IC50: 21.7 µM (active)
[8]
  AC50: 16.9 µM (active)
Protein S100-A4
  AC50: 0.406 µM (active)

## Cc1ccc2nc(NC(=O)c3cccc(-n4cnnn4)c3)sc2c1
Caspase-3
  IC50: > 99 µM (inactive)
[9]
  IC50: > 99 µM (inactive)
[10]
  IC50: > 99 µM (inactive)
[11]
  IC50: > 99 µM (inactive)

## COc1ccc(Oc2c(Cl)cnn(Cc3ccccc3OC)c2=O)cc1
[12]
  IC50: 6.63 µM (active)
